What was measured:
[1] = molecular target: T1, 5-hydroxytryptamine receptor 1A (Homo sapiens, UniProt P08908); experiment: biochemical
T1 sequence (P08908 whole entry): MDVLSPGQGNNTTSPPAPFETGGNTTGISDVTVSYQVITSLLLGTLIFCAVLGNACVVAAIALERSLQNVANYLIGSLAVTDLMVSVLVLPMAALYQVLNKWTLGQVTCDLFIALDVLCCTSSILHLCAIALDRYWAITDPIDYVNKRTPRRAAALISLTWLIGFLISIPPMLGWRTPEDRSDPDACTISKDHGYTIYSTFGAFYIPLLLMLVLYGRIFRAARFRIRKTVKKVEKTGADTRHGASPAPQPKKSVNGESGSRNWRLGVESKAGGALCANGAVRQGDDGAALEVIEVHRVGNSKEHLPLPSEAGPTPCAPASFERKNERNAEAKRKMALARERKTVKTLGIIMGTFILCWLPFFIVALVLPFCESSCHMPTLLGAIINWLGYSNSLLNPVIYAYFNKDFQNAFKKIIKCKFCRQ
Description: Displacement of [3H]8-OH-DPAT from human cloned 5HT1A receptor expressed in HEK293 EBNA cells after 1 hr by liquid scintillation counting

[2] = molecular target: T2, Alpha-1D adrenergic receptor (Homo sapiens, UniProt P25100)
T2 sequence (P25100 whole entry): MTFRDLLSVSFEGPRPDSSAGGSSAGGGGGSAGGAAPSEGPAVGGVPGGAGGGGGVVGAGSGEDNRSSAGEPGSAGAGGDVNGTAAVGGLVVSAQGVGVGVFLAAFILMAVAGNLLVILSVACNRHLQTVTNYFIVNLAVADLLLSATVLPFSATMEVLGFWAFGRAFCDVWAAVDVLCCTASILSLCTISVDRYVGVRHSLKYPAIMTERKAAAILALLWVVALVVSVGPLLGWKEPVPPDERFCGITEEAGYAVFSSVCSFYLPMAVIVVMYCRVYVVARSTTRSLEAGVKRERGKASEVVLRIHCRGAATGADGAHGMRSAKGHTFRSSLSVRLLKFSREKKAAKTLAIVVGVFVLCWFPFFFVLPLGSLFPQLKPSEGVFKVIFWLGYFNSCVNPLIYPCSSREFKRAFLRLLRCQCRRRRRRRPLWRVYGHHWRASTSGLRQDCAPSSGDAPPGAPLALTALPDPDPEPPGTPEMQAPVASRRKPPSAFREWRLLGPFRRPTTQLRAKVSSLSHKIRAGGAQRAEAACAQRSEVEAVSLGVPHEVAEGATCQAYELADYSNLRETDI
Description: Inhibition of adrenergic Alpha-1D receptor

D(4) dopamine receptor = molecular target: T3, D(4) dopamine receptor (Homo sapiens, UniProt P21917)
T3 sequence (P21917 whole entry): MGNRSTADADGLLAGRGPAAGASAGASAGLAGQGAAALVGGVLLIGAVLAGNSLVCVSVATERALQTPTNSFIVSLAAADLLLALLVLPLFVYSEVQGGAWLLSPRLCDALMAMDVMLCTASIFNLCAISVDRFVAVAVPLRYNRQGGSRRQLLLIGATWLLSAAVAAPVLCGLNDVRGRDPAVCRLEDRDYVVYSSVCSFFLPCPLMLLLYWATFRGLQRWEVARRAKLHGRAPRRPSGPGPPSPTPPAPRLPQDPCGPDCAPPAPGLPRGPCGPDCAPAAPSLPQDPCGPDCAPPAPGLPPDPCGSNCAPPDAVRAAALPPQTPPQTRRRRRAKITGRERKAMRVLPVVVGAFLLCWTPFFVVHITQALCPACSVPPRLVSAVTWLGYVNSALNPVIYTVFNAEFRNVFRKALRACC
Description: Inhibition of dopamine D4 receptor

[3] = molecular target: T4, Alpha-1B adrenergic receptor (Homo sapiens, UniProt P35368)
T4 sequence (P35368 whole entry): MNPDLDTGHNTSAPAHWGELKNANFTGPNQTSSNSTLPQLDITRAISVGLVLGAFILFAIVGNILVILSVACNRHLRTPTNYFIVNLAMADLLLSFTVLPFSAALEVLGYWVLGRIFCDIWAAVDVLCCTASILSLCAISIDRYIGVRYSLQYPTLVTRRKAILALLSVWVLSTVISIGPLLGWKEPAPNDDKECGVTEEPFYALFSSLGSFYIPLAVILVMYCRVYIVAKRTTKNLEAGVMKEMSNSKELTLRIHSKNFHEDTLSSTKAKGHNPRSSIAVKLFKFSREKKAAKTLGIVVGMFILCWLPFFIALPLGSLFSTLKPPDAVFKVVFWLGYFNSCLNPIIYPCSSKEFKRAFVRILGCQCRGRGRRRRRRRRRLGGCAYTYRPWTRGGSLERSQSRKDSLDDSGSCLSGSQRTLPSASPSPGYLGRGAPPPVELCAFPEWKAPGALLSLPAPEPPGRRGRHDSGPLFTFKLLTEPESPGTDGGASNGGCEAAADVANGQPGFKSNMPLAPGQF
Description: Inhibition of adrenergic Alpha-1B receptor

[4] = molecular target: 5-hydroxytryptamine receptor 7 (Homo sapiens, UniProt P34969)
Chain of 5-hydroxytryptamine receptor 7 (P34969 whole entry): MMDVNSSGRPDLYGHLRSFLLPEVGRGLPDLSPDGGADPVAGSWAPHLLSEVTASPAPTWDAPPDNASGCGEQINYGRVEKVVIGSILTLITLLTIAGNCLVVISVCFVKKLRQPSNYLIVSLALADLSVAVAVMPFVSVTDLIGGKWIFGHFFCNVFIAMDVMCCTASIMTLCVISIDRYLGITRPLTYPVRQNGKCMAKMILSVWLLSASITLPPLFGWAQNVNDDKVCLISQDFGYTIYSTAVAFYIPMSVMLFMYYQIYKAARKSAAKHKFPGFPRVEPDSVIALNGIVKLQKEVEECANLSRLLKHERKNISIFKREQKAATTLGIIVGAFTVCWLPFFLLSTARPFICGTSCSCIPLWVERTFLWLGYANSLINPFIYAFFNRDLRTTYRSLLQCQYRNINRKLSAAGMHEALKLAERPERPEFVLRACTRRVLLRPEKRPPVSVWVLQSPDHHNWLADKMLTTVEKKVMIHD

[5] = molecular target: T5, Alpha-1A adrenergic receptor (Homo sapiens, UniProt P35348)
T5 sequence (P35348 whole entry): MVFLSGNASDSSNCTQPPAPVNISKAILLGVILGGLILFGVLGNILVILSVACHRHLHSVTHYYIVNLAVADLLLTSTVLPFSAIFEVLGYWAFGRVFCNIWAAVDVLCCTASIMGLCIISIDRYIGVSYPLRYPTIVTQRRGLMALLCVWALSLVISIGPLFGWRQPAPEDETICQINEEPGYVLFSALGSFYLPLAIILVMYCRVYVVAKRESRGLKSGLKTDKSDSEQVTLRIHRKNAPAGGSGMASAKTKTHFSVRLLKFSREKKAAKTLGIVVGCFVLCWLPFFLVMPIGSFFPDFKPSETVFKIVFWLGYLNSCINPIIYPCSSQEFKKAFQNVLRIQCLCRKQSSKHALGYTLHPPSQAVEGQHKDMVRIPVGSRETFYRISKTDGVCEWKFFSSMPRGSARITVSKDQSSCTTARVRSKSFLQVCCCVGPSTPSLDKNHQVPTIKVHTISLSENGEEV
Description: Inhibition of adrenergic alpha1A receptor

[6] = molecular target: T1, 5-hydroxytryptamine receptor 1A
[7] = molecular target: 5-hydroxytryptamine receptor 1B (Homo sapiens, UniProt P28222)
Chain of 5-hydroxytryptamine receptor 1B (P28222 whole entry): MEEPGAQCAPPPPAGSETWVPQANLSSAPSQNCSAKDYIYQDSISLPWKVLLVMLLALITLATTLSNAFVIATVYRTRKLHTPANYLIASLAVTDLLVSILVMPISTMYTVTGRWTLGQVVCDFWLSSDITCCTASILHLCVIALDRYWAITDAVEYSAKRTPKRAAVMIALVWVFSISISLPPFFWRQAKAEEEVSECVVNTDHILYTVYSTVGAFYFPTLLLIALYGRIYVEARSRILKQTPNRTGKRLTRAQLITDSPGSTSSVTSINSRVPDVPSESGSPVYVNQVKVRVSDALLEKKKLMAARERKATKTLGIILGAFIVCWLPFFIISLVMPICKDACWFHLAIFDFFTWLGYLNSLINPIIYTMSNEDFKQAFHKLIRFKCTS

physchem = conditions: octanol/water, pH 7.4
Liver [8] = experiment: Biodistribution in Wistar rat liver at 7 MBq, iv after 45 mins; type: ADME, organism-based; conditions: in vivo, 0.75 h
Blood [9] = experiment: Biodistribution in Wistar rat blood at 7 MBq, iv after 45 mins; type: ADME, organism-based; conditions: in vivo, 0.75 h
Heart [10] = experiment: Biodistribution in Wistar rat heart at 7 MBq, iv after 45 mins; type: ADME, organism-based; conditions: in vivo, 0.75 h
Striatum [11] = experiment: Biodistribution in Wistar rat striatum at 7 MBq, iv after 45 mins; type: ADME, organism-based; conditions: in vivo, 0.75 h
Occipital cortex [12] = experiment: Biodistribution in Wistar rat occipital cortex at 7 MBq, iv after 45 mins; type: ADME, organism-based; conditions: in vivo, 0.75 h
Lung [13] = experiment: Biodistribution in non-labeled WAY-100635 ptretreated Wistar rat lung at 7 MBq, iv after 45 mins; type: ADME, organism-based; conditions: in vivo, 0.75 h
Heart [14] = experiment: Biodistribution in non-labeled WAY-100635 ptretreated Wistar rat heart at 7 MBq, iv after 45 mins; type: ADME, organism-based; conditions: in vivo, 0.75 h
Blood [15] = experiment: Biodistribution in non-labeled WAY-100635 ptretreated Wistar rat blood at 7 MBq, iv after 45 mins; type: ADME, organism-based; conditions: in vivo, 0.75 h
Hippocampus [16] = experiment: Biodistribution in Wistar rat hippocampus at 7 MBq, iv after 45 mins; type: ADME, organism-based; conditions: in vivo, 0.75 h
Rattus norvegicus [17] = experiment: Biodistribution in Wistar rat rest cortex at 7 MBq, iv after 45 mins; type: ADME, organism-based; conditions: in vivo, 0.75 h
Rattus norvegicus [18] = experiment: Biodistribution in Wistar rat frontal cortex at 7 MBq, iv after 45 mins; type: ADME, organism-based; conditions: in vivo, 0.75 h
Cerebellum [19] = experiment: Biodistribution in Wistar rat cerebellum at 7 MBq, iv after 45 mins; type: ADME, organism-based; conditions: in vivo, 0.75 h
Kidney [20] = experiment: Biodistribution in Wistar rat kidney at 7 MBq, iv after 45 mins; type: ADME, organism-based; conditions: in vivo, 0.75 h
Lung [21] = experiment: Biodistribution in Wistar rat lung at 7 MBq, iv after 45 mins; type: ADME, organism-based; conditions: in vivo, 0.75 h
Liver [22] = experiment: Biodistribution in non-labeled WAY-100635 ptretreated Wistar rat liver at 7 MBq, iv after 45 mins; type: ADME, organism-based; conditions: in vivo, 0.75 h
Kidney [23] = experiment: Biodistribution in non-labeled WAY-100635 ptretreated Wistar rat kidney at 7 MBq, iv after 45 mins; type: ADME, organism-based; conditions: in vivo, 0.75 h
Thyroid gland = experiment: Biodistribution in non-labeled WAY-100635 ptretreated Wistar rat thyroid assessed per organ at 7 MBq, iv after 45 mins; type: ADME, organism-based; conditions: in vivo, 0.75 h
Rattus norvegicus [24] = experiment: Biodistribution in non-labeled WAY-100635 ptretreated Wistar rat frontal cortex at 7 MBq, iv after 45 mins; type: ADME, organism-based; conditions: in vivo, 0.75 h
Occipital cortex [25] = experiment: Biodistribution in non-labeled WAY-100635 ptretreated Wistar rat occipital cortex at 7 MBq, iv after 45 mins; type: ADME, organism-based; conditions: in vivo, 0.75 h
Rattus norvegicus [26] = experiment: Biodistribution in non-labeled WAY-100635 ptretreated Wistar rat rest cortex at 7 MBq, iv after 45 mins; type: ADME, organism-based; conditions: in vivo, 0.75 h
Striatum [27] = experiment: Biodistribution in non-labeled WAY-100635 ptretreated Wistar rat striatum at 7 MBq, iv after 45 mins; type: ADME, organism-based; conditions: in vivo, 0.75 h
Hippocampus [28] = experiment: Biodistribution in non-labeled WAY-100635 ptretreated Wistar rat hippocampus at 7 MBq, iv after 45 mins; type: ADME, organism-based; conditions: in vivo, 0.75 h
Cerebellum [29] = experiment: Biodistribution in non-labeled WAY-100635 ptretreated Wistar rat cerebellum at 7 MBq, iv after 45 mins; type: ADME, organism-based; conditions: in vivo, 0.75 h
Nucleic Acid [30] = experiment: Ratio of drug level in cerebellum to hippocampus in Wistar rat at 7 MBq, iv after 45 mins; type: ADME, organism-based; conditions: in vivo, 0.75 h
Nucleic Acid [31] = experiment: Ratio of drug level in cerebellum to occipital cortex in Wistar rat at 7 MBq, iv after 45 mins; type: ADME, organism-based; conditions: in vivo, 0.75 h
Nucleic Acid [32] = experiment: Ratio of drug level in cerebellum to frontal cortex in Wistar rat at 7 MBq, iv after 45 mins; type: ADME, organism-based; conditions: in vivo, 0.75 h
Nucleic Acid [33] = experiment: Ratio of drug level in cerebellum to striatum in Wistar rat at 7 MBq, iv after 45 mins; type: ADME, organism-based; conditions: in vivo, 0.75 h

## COc1ccccc1N1CCN(CCN(C(=O)C23CC4CC(CC(I)(C4)C2)C3)c2ccccn2)CC1
[1]
  IC50: 5.04 nM
  Ki: 2.15 nM

## COc1ccccc1N1CCN(CCN(C(=O)C23C4C5C2C2C3C4C52I)c2ccccn2)CC1 (stereo unspecified)
[2]
  Ki: 98 nM
D(4) dopamine receptor
  Ki: 329 nM
[3]
  Ki: 185 nM
[4]
  Ki: 161 nM
[5]
  Ki: 78 nM
[6]
  Ki: 2.2 nM
[7]
  Ki: 121 nM
physchem
  logD: 4.14
[1]
  IC50: 2.59 nM
  Ki: 1.11 nM

## COc1ccccc1N1CCN(CCN(C(=O)C23CCC(I)(CC2)CC3)c2ccccn2)CC1
[1]
  IC50: 2.61 nM
  Ki: 1.11 nM

## COc1ccccc1N1CCN(CCN(C(=O)C23CCC(I)(CC2)C3)c2ccccn2)CC1
[1]
  IC50: 2.02 nM
  Ki: 0.87 nM

## O=C(N(CCN1CCN(c2ccccc2O)CC1)c1ccccn1)C12CC3CC(C1)C(I)C(C3)C2 (stereo unspecified)
[1]
  IC50: 3.95 nM
  Ki: 1.68 nM

## O=C(N(CCN1CCN(c2ccccc2O)CC1)c1ccccn1)C12C3C4C1C1C2C3C41I (stereo unspecified)
[2]
  Ki: 181 nM
D(4) dopamine receptor
  Ki: 890 nM
[3]
  Ki: 25 nM
[4]
  Ki: 50 nM
[5]
  Ki: 176 nM
[6]
  Ki: 1.4 nM
[7]
  Ki: 272 nM
physchem
  logD: 4.03
[1]
  IC50: 1.5 nM
  Ki: 0.64 nM

## O=C(N(CCN1CCN(c2ccccc2O)CC1)c1ccccn1)C12CCC(I)(CC1)CC2
[1]
  IC50: 4.57 nM
  Ki: 1.95 nM

## O=C(N(CCN1CCN(c2ccccc2O)CC1)c1ccccn1)C12CCC(I)(CC1)C2
[1]
  IC50: 1.19 nM
  Ki: 0.47 nM

## COc1ccccc1N1CCN(CCN(C(=O)C23C4C5C2C2C3C4C52[123I])c2ccccn2)CC1 (stereo unspecified)
Liver [8]
  Drug uptake: 2.34 % ID/g
Blood [9]
  Drug uptake: 0.24 % ID/g
Heart [10]
  Drug uptake: 0.16 % ID/g
Striatum [11]
  Drug uptake: 0.04 % ID/g
Occipital cortex [12]
  Drug uptake: 0.06 % ID/g
Lung [13]
  Drug uptake: 0.31 % ID/g
Heart [14]
  Drug uptake: 0.2 % ID/g
Blood [15]
  Drug uptake: 0.33 % ID/g
Hippocampus [16]
  Drug uptake: 0.1 % ID/g
Rattus norvegicus [17]
  Drug uptake: 0.05 % ID/g
Rattus norvegicus [18]
  Drug uptake: 0.06 %ID
Cerebellum [19]
  Drug uptake: 0.05 % ID/g
Kidney [20]
  Drug uptake: 1.37 % ID/g
Lung [21]
  Drug uptake: 0.28 % ID/g
Liver [22]
  Drug uptake: 2.77 % ID/g
Kidney [23]
  Drug uptake: 1.32 % ID/g
Thyroid gland
  Drug uptake: 0.01 %ID
Rattus norvegicus [24]
  Drug uptake: 0.05 % ID/g
Occipital cortex [25]
  Drug uptake: 0.05 % ID/g
Rattus norvegicus [26]
  Drug uptake: 0.04 % ID/g
Striatum [27]
  Drug uptake: 0.04 % ID/g
Hippocampus [28]
  Drug uptake: 0.06 % ID/g
Cerebellum [29]
  Drug uptake: 0.05 % ID/g
Nucleic Acid [30]
  Ratio: 2.51
Nucleic Acid [31]
  Ratio: 1.21
Nucleic Acid [32]
  Ratio: 1.16
Nucleic Acid [33]
  Ratio: 0.91

## O=C(C1CCCCC1)N(CCN1CCN(c2ccccc2O)CC1)c1ccccn1
[1]
  IC50: 0.77 nM
  Ki: 0.33 nM

— ChEMBL document CHEMBL1772973, “Design, synthesis, radiolabeling, and in vitro and in vivo evaluation of bridgehead iodinated analogues of N-{2-[4-(2-methoxyphenyl)piperazin-1-yl]ethyl}-N-(pyridin-2-yl)cyclohexanecarboxamide (WAY-100635) as potential SPECT ligands for the 5-HT1A receptor” (J Med Chem, 2011)
